Assay results taken from ChEMBL document CHEMBL3045634, “Quantitative structure activity relationship analysis of angiotensin II AT1 receptor antagonists” (Med Chem Res, 2010).

Target: T1, Type-1 angiotensin II receptor (Homo sapiens) (UniProt P30556)
T1 sequence (whole entry): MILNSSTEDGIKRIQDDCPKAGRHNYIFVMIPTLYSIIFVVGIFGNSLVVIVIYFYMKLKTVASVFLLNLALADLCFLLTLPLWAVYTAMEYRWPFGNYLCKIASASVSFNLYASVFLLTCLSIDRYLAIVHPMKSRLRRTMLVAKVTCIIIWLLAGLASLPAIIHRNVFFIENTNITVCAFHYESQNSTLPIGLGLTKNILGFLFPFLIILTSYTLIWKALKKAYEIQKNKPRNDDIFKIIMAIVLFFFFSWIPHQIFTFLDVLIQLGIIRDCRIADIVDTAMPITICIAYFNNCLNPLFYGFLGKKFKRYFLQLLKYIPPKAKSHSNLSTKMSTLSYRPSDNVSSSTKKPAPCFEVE
Experiment: (§1) Antagonist activity at angiotensin 2 type-1 receptor (unknown origin)

SMILES | pIC50
CCCCc1ncc(/C=C2/C(=O)N(CCCC)C(=O)N2Cc2ccc(-c3ccccc3)cc2)n1Cc1ccc(C(=O)OC)cc1 | 6.05

Target: T2, Type-1 angiotensin II receptor (Homo sapiens, UniProt P30556)
T2 sequence (P30556 whole entry): T1 sequence (whole entry)
Experiment: as §1

SMILES | IC50
CCCCc1ncc(/C=C2/C(=O)N(CCCC)C(=O)N2Cc2csc(C)n2)n1Cc1ccc(C(=O)OC)cc1 | 1.9 nM
CCCCc1ncc(/C=C2/C(=O)N(CSCC)C(=O)N2Cc2csc(C)n2)n1Cc1ccc(C(=O)OC)cc1 | 9.6 nM
CCCCc1ncc(/C=C2/C(=O)N(CCCC)C(=O)N2Cc2ccc(C)cc2)n1Cc1ccc(C(=O)OC)cc1 | 34.6 nM
CCCCc1ncc(/C=C2/C(=O)NC(=O)N2CCC(C)C)n1Cc1ccc(C(=O)O)cc1 | 6.6 nM
CCCCc1ncc(/C=C2\C(=O)N(CCCC)C(=O)N2Cc2csc(C)n2)n1Cc1ccc(C(=O)O)cc1 | 1.7 nM
CCCCc1ncc(/C=C2\C(=O)NC(=O)N2Cc2cccs2)n1Cc1ccc(C(=O)O)cc1 | 2.6 nM
CCCCc1ncc(/C=C2/C(=O)N(CCCC)C(=O)N2Cc2ccc(N)cc2)n1Cc1ccc(C(=O)OC)cc1 | 3 nM
CCCCc1ncc(/C=C2\C(=O)N(CCCC)C(=O)N2CCCC)n1Cc1ccc(C(=O)O)cc1 | 0.5 nM
CCCCc1ncc(/C=C2/C(=O)N(CCCC)C(=O)N2Cc2ccc(C#N)cc2)n1Cc1ccc(C(=O)OC)cc1 | 11.1 nM
CCCCc1ncc(/C=C2/C(=O)NC(=O)N2CCCC)n1Cc1ccc(S(=O)(=O)NC(F)(F)F)cc1 | 3.3 nM
CCCCc1ncc(/C=C2/C(=O)N(CCCC)C(=O)N2Cc2ccsc2)n1Cc1ccc(C(=O)OC)cc1 | 4.8 nM
CCCCc1ncc(/C=C2/C(=O)N(CCCC)C(=O)N2Cc2cccs2)n1Cc1ccc(C(=O)O)cc1 | 0.7 nM
CCCCc1ncc(/C=C2/C(=O)N(CCCC)C(=O)N2Cc2cccc(Cl)c2)n1Cc1ccc(C(=O)OC)cc1 | 117 nM
CCCCc1ncc(/C=C2\C(=O)N(CCCC)C(=O)N2Cc2csc(N)n2)n1Cc1ccc(C(=O)O)cc1 | 0.5 nM
CCCCc1ncc(/C=C2/C(=O)N(CCCC)C(=O)N2CCc2csc(Br)c2)n1Cc1ccc(C(=O)OC)cc1 | 25.4 nM
CCCCc1ncc(/C=C2/C(=O)N(CCCC)C(=O)N2CCCC)n1Cc1ccc(S(=O)(=O)NC(F)(F)F)cc1 | 29.6 nM
CCCCc1ncc(/C=C2/C(=O)N(CCCO)C(=O)N2Cc2csc(C)n2)n1Cc1ccc(C(=O)OC)cc1 | 47.9 nM
CCCCc1ncc(/C=C2/C(=O)N(CCCC)C(=O)N2Cc2ccc(C)s2)n1Cc1ccc(C(=O)O)cc1 | 0.6 nM
CCCCc1ncc(/C=C2/C(=O)N(CCCC)C(=O)N2Cc2c[nH]cn2)n1Cc1ccc(C(=O)OC)cc1 | 54.5 nM
CCCCc1ncc(/C=C2/C(=O)NC(=O)N2Cc2ccc(Cl)cc2)n1Cc1ccc(C(=O)O)cc1 | 3 nM
CCCCc1ncc(/C=C2\C(=O)NC(=O)N2CCCC)n1Cc1ccc(-c2nn[nH]n2)cc1 | 4.2 nM
CCCCc1ncc(/C=C2\C(=O)N(CCCC)C(=O)N2Cc2cccs2)n1Cc1ccc(C(=O)O)cc1 | 0.6 nM
CCCCc1ncc(/C=C2/C(=O)N(CCC)C(=O)N2Cc2csc(C)n2)n1Cc1ccc(C(=O)OC)cc1 | 9 nM
CCCCc1ncc(/C=C2/C(=O)N(CCCC)C(=O)N2Cc2ccc(Cl)cc2)n1Cc1ccc(C(=O)OC)cc1 | 17.6 nM
CCCCc1ncc(/C=C2/C(=O)N(CCCC(F)(F)F)C(=O)N2Cc2csc(C)n2)n1Cc1ccc(C(=O)OC)cc1 | 70 nM

SMILES | IC50
CCCCc1ncc(/C=C2/C(=O)N(CCCC)C(=O)N2c2ccccc2)n1Cc1ccc(C(=O)OC)cc1 | 6.1 nM
CCCCc1ncc(/C=C2/C(=O)NC(=O)N2CCCC)n1Cc1ccc(C(=O)OC)cc1 | 3.5 nM
CCCCc1ncc(/C=C2/C(=O)N(CCCC)C(=O)N2Cc2ccc(OC)cc2)n1Cc1ccc(C(=O)OC)cc1 | 9.8 nM
CCCCc1ncc(/C=C2/C(=O)N(CCCC)C(=O)N2Cc2ccc(C(F)(F)F)cc2)n1Cc1ccc(C(=O)OC)cc1 | 159 nM
CCCCc1ncc(/C=C2\C(=O)NC(=O)N2Cc2ccccc2)n1Cc1ccc(C(=O)O)cc1 | 3.4 nM
CCCCc1ncc(/C=C2/C(=O)N(CCCC)C(=O)N2Cc2ccc(C(=O)OC)s2)n1Cc1ccc(C(=O)OC)cc1 | 4.2 nM
CCCCc1ncc(/C=C2/C(=O)NC(=O)N2CCCC)n1Cc1ccc(-c2ccccc2-c2nn[nH]n2)cc1 | 1.4 nM
CCCCc1ncc(/C=C2\C(=O)NC(=O)N2CCC(C)C)n1Cc1ccc(C(=O)O)cc1 | 4.9 nM
CCCCc1ncc(/C=C2/C(=O)N(CCCC)C(=O)N2Cc2ccoc2)n1Cc1ccc(C(=O)OC)cc1 | 8.3 nM
CCCCc1ncc(/C=C2/C(=O)N(CCCC)C(=O)N2C=C(C)C)n1Cc1ccc(C(=O)OC)cc1 | 11.1 nM
CCCCc1ncc(/C=C2/C(=O)N(CCCC)C(=O)N2Cc2ccc3ccccc3c2)n1Cc1ccc(C(=O)OC)cc1 | 104 nM
CCCCc1ncc(/C=C2/C(=O)NC(=O)N2Cc2cccs2)n1Cc1ccc(C(=O)O)cc1 | 2.3 nM
CCCCc1ncc(/C=C2/C(=O)NC(=O)N2Cc2ccccc2)n1Cc1ccc(C(=O)O)cc1 | 4 nM
CCCCc1ncc(/C=C2\C(=O)NC(=O)N2CCCC)n1Cc1ccc(C2(C(=O)OC)CCCC2)cc1 | 2.5 nM
CCCCc1ncc(/C=C2/C(=O)N(CCCC)C(=O)N2Cc2csc(N)n2)n1Cc1ccc(C(=O)O)cc1 | 0.6 nM
CCCCc1ncc(/C=C2/C(=O)N(C)C(=O)N2Cc2csc(C)n2)n1Cc1ccc(C(=O)OC)cc1 | 16.6 nM
CCCCc1ncc(/C=C2/C(=O)N(CCCC)C(=O)N2Cc2cc(C)cs2)n1Cc1ccc(C(=O)O)cc1 | 1.5 nM
CCCCc1ncc(/C=C2/C(=O)NC(=O)N2CCCC)n1Cc1ccc(-c2nn[nH]n2)cc1 | 7.1 nM
CCCCc1ncc(/C=C2/C(=O)N(CCCC)C(=O)N2Cc2ccc(-c3ccccc3)cc2)n1Cc1ccc(C(=O)OC)cc1 | 884 nM
CCCCc1ncc(/C=C2/C(=O)NC(=O)N2Cc2cccs2)n1Cc1ccc(C(=O)OC)cc1 | 7.1 nM
CCCCc1ncc(/C=C2/C(=O)N(CCCC)C(=O)N2Cc2ccsc2)n1Cc1ccc(C(=O)O)cc1 | 0.9 nM
CCCCc1ncc(/C=C2/C(=O)N(CCCC)C(=O)N2Cc2ccc(O)c(O)c2)n1Cc1ccc(C(=O)OC)cc1 | 4.9 nM
CCCCc1ncc(/C=C2/C(=O)N(CCCC)C(=O)N2Cc2c[nH]c(C)n2)n1Cc1ccc(C(=O)OC)cc1 | 245 nM
CCCCc1ncc(/C=C2/C(=O)N(CCCC)C(=O)N2Cc2cccc(C)c2)n1Cc1ccc(C(=O)OC)cc1 | 18.5 nM
CCCCc1ncc(/C=C2/C(=O)N(CCCC)C(=O)N2Cc2csc(C)n2)n1Cc1ccc(C2(C(=O)O)CCCC2)cc1 | 8 nM
